# Experimental data taken from a melting point compilation (Tetko et al.; mined from patent text by program, amines drawn as free bases though some values may be those of a salt).
# Residues, ends and D or L forms follow the SMILES beside them. *: point of attachment. Cbz = O=C(OCc1ccccc1)*
row,melting point,Compound
1,88 to 90 °C,C=CC(=O)OCCCCCCN(C)c1ccc(C=Cc2ccc(S(C)(=O)=O)cc2)cc1
2,133 to 134 °C,CSc1ccc(C(=O)C=Cc2ccncc2)cc1
3,228 to 230 °C,Cc1ncc2cc(-c3c(Cl)cccc3Cl)c(NC(=O)c3ccco3)nc2n1
4,151 to 152 °C,CCOc1ccc(S(=O)(=O)N[C@H](CCCN2C(=O)c3ccccc3C2=O)C(=O)O)cc1
5,150 to 151 °C,COc1cc(C2(O)CCOCC2)ccc1OCc1ccc2ccccc2c1
6,168 to 172 °C,Fc1ccccc1-c1ccnc2ncnn12
7,75 to 76 °C,CS(=O)(=O)OCCCc1cccc(OCc2coc(/C=C/c3ccccc3)n2)c1
8,178 to 181 °C,O=c1c2c([nH]n1-c1ccccc1)CCCC2
9,74 to 76 °C,S=C=NCc1cc(-c2ccc(Cl)cc2)no1
10,123 °C,CCCCC(=O)N(Cc1ccc(Br)cc1)[C@H](C(=O)O)C(C)C
11,136 to 138 °C,COc1c2c(c(OC)c(OC)c1OC)CC(CCCCOc1ccc(C(=O)O)cc1)C2
12,82 °C,CC/C(=C\CCC(O)(CC)CC)c1ccc(COc2ccc(CO)c(CO)c2)s1
13,178 to 179 °C,Cc1cc(C)cc(S(=O)(=O)c2ccc(N)cc2)c1
14,211 °C,O=c1[nH]c(C2(F)CC2)nc2c1cnn2-c1ncc(C(F)(F)F)cc1Cl
15,81 to 83 °C,O=C(Cc1cccnc1)c1ccc(Oc2ccccc2)cc1
16,81 to 82 °C,c1ccc2oc(COc3ccc(CCCn4ccnc4)cc3)nc2c1
17,128 to 129 °C,CC(=O)S[C@@H]1CCO[C@@H](/C(C)=C/c2ccc(C(F)(F)F)cc2)O1 (relative stereo)
18,266 to 268 °C,O=C(Nc1ccc(-c2nnn[nH]2)cc1)C(F)(F)C(F)(F)C(F)(F)F
19,94 to 95 °C,COc1cc(CCCC#N)ccc1OCc1nc(-c2ccco2)oc1C
20,165 to 166 °C,COC(=O)C1=C(C)Nc2ccccc2SC1c1ccccc1C(F)(F)F (stereo unspecified)
21,158 to 159 °C,O=C1OC(c2ccc(Cl)c(S(=O)(=O)Cl)c2)c2ccccc21 (stereo unspecified)
22,249 °C,CNc1nc(Nc2ccc(Cl)cc2F)ncc1N1CCNC1=O
23,64 to 67 °C,NCc1cc(-c2ccnc(Nc3cccc(OC(F)(F)C(F)F)c3)n2)ccn1

row,melting point,Compound
1,76 to 77 °C,CC(=O)OCc1cc(C)cc(Oc2nc(Cl)nc(Cl)c2C(C)C)c1
2,150 to 154 °C,CCCCCCCCCCCCCCCC(=O)OCC(COC(=O)CCCCCCCCCCCCCCC)OCn1cnc2c(=O)[nH]c(N)nc21
3,> 250 °C,Nc1ccc(NC(=O)C=C2CC(C(=O)O)Nc3cc(Cl)cc(Cl)c32)cc1 (racemic)
4,168 to 170 °C,N#CC(=C1CCCN1)c1ccc(-c2ccccc2)cc1
5,177 to 188 °C,CC(C)(C)Nc1c([N+](=O)[O-])cc([N+](=O)[O-])c2nc(C(F)(F)F)[nH]c12
6,179 °C,c1c2c(nc3c1CCCCC3)CCCCC2
7,104 to 106 °C,CCCCC(=O)N(Cc1ccc(-c2ccccc2-c2nnn[nH]2)cc1Br)[C@H](C(=O)OCc1ccccc1)C(C)C
8,193 to 194 °C,CN(C)C1N(C)C(=O)NC(=O)N1c1cc(OCc2ccccc2)c(Cl)cc1F (stereo unspecified)
9,195 to 196 °C,CC(C#N)=C1CCC2C3CCC4=CC(=O)CCC4(C)C3CCC12C (stereo unspecified)
10,77 °C,CCCc1c(-c2cccnn2)ssc1=S
11,155 to 156 °C,COc1ccc(N2CCN(CCCCc3ccc(C4CCC(=O)N4)cc3)CC2)cc1 (stereo unspecified)
12,153 to 155 °C,O=C1SCNc2sccc21
13,207 to 208 °C,CC(C(N)=O)c1ccc2c(c1)C(=O)Cc1ccc(Cl)cc1S2 (stereo unspecified)
14,145 to 147 °C,CC(=O)NC1CCN(c2cccc(C)n2)CC1
15,123 to 125 °C,"CN1C(=O)CCC2(C)c3ccc(Sc4ccccc4Cl)cc3CCC12 (single isomer, unassigned; (+))"
16,62 to 67 °C,CCNC(=NS(=O)(=O)c1cccc(Cl)c1)N1CC(C)(C)C=N1
17,93 to 96 °C,Cc1cccc(-c2[nH]c(C(C)C)nc2-c2cccc(-c3ccc(S(=O)(=O)N(C)C)cc3)c2)n1
18,122 to 125 °C,CC(C)N(Cc1ccccc1)c1ncnc2c(N3CCOCC3)nc(N3CCC(N(C)C)CC3)nc12
19,133 to 135 °C,COC(=O)C(CO)NC(=O)C(Cc1c[nH]c2ccccc12)NC(=O)OCc1ccccc1 (stereo not drawn) (Cbz-Trp-Ser-OMe; configuration not given here)
20,226 to 228 °C,COc1cc2cc([N+](=O)[O-])c(OCc3ccccc3)cc2oc1=O
21,103 to 105 °C,COC(=O)OC(C(=O)O)c1ccccc1 (stereo unspecified)
22,148 °C,O=Cc1cncc2ncc(-c3ccccc3)cc12
23,131 to 132 °C,O=S1(=O)C[C@H](O)[C@H](O)CS1

row,melting point,Compound
1,158 to 160 °C,Cc1nc(-c2cc(Cl)ccc2Cl)n2c1nnc1ccc(N3CCCCC3)cc12
2,126 to 129 °C,COc1ccccc1N(CC1OCCO1)C(=O)c1ccc(CCl)cc1
3,182 °C,Cc1nc(C(C)(C)C)ccc1/C=C/C(=O)Nc1ccc2cc[nH]c2c1
4,119 to 123 °C,COC1=CC(=O)C2=C(C1=O)C(Cl)C(Cl)CC2 (stereo unspecified)
5,74 to 75 °C,COC(=O)NNC(=S)Cc1cccs1
6,181 to 184 °C,[N-]=[N+]=NCC(=O)Nc1ccc(S(=O)(=O)c2ccc(F)cc2)cc1
7,122 to 123 °C,CCOC(=O)CC1CCc2[nH]c3ccccc3c2C1 (stereo unspecified)
8,101 to 103 °C,CN(C)C(=O)N(C)c1nnc(S(=O)(=O)N(C)C)s1
9,215 to 216 °C,NC(=O)COc1ccc(CN2C(=O)C3(COc4cc5c(cc43)CCO5)c3ccccc32)cc1 (stereo unspecified)
10,122 to 124 °C,Cc1cccc(CN(CCC(=O)O)c2nc(NC(=O)Nc3ccccc3O)nc(Nc3ccccc3-c3ccccc3)n2)c1
11,204 to 205 °C,Cc1ccc(-c2ncn3c2CN(N(C)C)c2ccccc2-3)cc1
12,154 to 155 °C,CN1C(=O)C(c2ccccc2)(c2ccncc2)N=C1N (stereo unspecified)
13,172 to 174 °C,CCCCCCC(=O)Nc1cccc2c1C(=O)N(C1(C)CCC(=O)NC1=O)C2=O (stereo unspecified)
14,50 to 55 °C,CCOCCn1c(N2CCCN(CCC3(c4ccccn4)CCN(C(=O)c4cc(OC)c(OC)c(OC)c4)C3)CC2)nc2ccccc21 (stereo unspecified)
15,135 to 137 °C,S=C(Nc1cccc(Br)c1)N1CCCSC1c1ccccc1 (stereo unspecified)
16,195 to 199 °C,CC(CCC(O)C(C)(C)O)C1CCC2C3CC=C4CC(O)CCC4(C)C3CCC12C (stereo unspecified)
17,135 to 136 °C,CCCN(CCC)C(=O)Cn1c(-c2ccc(F)cc2)nc2cccnc21
18,144 to 146 °C,N#Cc1cccc(-c2nc3sccn3c2-c2ccnc(N[C@@H]3CCCN(S(=O)(=O)c4ccc(Cl)cc4)C3)n2)c1
19,60 to 61 °C,O=C1c2ccccc2C(=O)N1CCc1ccc(OC(F)(F)F)c(OC(F)(F)F)c1
20,84 to 85 °C,CC(CBr)=C(C(=O)OCc1ccccc1)N1C(=O)C(Br)(Br)C1Br (stereo unspecified)
21,154 to 155 °C,C=CCOc1ccccc1OCC(O)CNC1CCC(N2CCNC2=O)CC1 (stereo unspecified)
22,160 to 161 °C,O=C(Nc1ccc(N2CCOCC2)c(C(F)(F)F)c1)c1ccc(F)c(OCc2cccnc2)c1
23,161 to 162 °C,COc1ccc(CC(=O)Nc2ccc3c(c2)[C@@H](OCCc2ccccc2)[C@H](O)C(C)(C)O3)cc1 (relative stereo)

row,melting point,Compound
1,198 to 200 °C,CCOC(=O)c1csc(Nc2ccc(C)cn2)n1
2,71 °C,COC(=O)[C@H](Cc1c[nH]c2ccccc12)N(CCN(CC(=O)OC(C)(C)C)CC(=O)OC(C)(C)C)CCN(CC(=O)OC(C)(C)C)CC(=O)OC(C)(C)C
3,134 to 135 °C,COc1cc([N+](=O)[O-])c(Br)cc1OCc1ccccc1
4,113 to 114 °C,O=[N+]([O-])c1ccc(F)c(-c2cccc(CO)c2)c1
5,168 °C,CC(O)(C1=CCNCC1)c1ccc(F)cc1 (stereo unspecified)
6,117 to 119 °C,CSc1ccc([C@@H](CC2CCCC2)C(=O)O)cc1Cl
7,159 °C,O=C(CCSC(=S)Nc1ccc(Cl)cn1)c1ccccc1
8,132 to 134 °C,COC1C(OC(=O)c2ccccc2)C(COC(=O)c2ccccc2)OC1n1ccc(=O)[nH]c1=O (stereo unspecified)
9,182 °C,Oc1ccc2c(c1)c1c(n2CCCCCN2CCCCC2)-c2ccccc2SCC1
10,59 to 63 °C,O=C(CCl)NCCCCOc1cc(CN2CCCCC2)ccn1
11,159 to 160 °C,Cc1c(CNCC(C)(C)C)[nH]c2c(F)c(NC(=O)c3ccc(OC[C@@H]4CCCO4)cc3)ccc12
12,122 to 124 °C,CCN(CC)c1ccc2c(c1)CC(=O)N2
13,126 to 127 °C,COc1cc(C=CC(=O)c2cccc(O)c2)cc(OC)c1
14,112 to 116 °C,O=C1c2ccccc2CN1C1CCN(C/C=C\CC2c3ccccc3-c3ccccc32)CC1
15,> 320 °C,Sc1nc2cnccc2[nH]1
16,116 °C,CC#CCOc1cc(Oc2ccc(F)cc2)ncn1
17,89 to 90 °C,CN=C1c2ccccc2CCc2ccccc21
18,190 to 191 °C,CN1C2CCC1CN(C(=O)c1ccc(-c3ccc(N)cc3)o1)C2
19,145 °C,Cn1c(=O)c2c(ncn2Cc2noc(CCO)n2)n(C)c1=O
20,40 to 43 °C,ClC1(CBr)C=CC=CN1 (stereo unspecified)
21,30 to 31 °C,CCCCCCCN(O)C(=O)N(C)C

row,Compound,melting point
1,CN1CCN(Cc2cccc(-c3ccc(-c4cn([C@H]5CN6CCC5CC6)nn4)s3)c2)CC1,155 °C
2,CN1Cc2c(C(=O)OC3CCCCC3)ncn2-c2cccc(Cl)c2C1=O,208 to 209 °C
3,O=C1Nc2ccccc2N2CCN(Cc3ccncc3)CC12 (stereo unspecified),253 to 255 °C
4,Cc1nc(CCc2nc3ccc(F)cc3c(=O)n2-c2cccnc2C)cs1,151 to 153 °C
5,COC(=O)C1Cc2sc3c(c2C1)C(c1ccccc1Cl)=NCC(N(C)C1(C)OCCO1)=N3 (stereo unspecified),166 to 168 °C
6,CN1CCC(N2C(=O)CN=C(c3ccccc3)c3ccccc32)CC1,158 to 159 °C
7,O=C1c2ccccc2C(=O)N1Cc1noc(-c2ncn3c2[C@@H]2CCN2C(=O)c2c(Cl)cccc2-3)n1,189 to 192 °C
8,N#CC12CCN(CC1)CC2Cc1ccccc1 (stereo unspecified),82.5 to 84 °C
9,C(#Cc1ccccn1)CCN1CC=C(c2ccccc2)CC1,87.5 to 88.5 °C
10,CCC(=O)N(C)c1cccc(-c2ccnc3c(C(=O)c4ccccc4)cnn23)c1,154 to 156 °C
11,CC(C)c1c(C(=O)c2cccnc2)c2ccccc2n1C,114 °C
